Where two headings read alike, the source gives them in different places.
Tests used:
[1] = Acute toxicity (LD50, Behrens-Karber method); assay type: in vivo, ICR mice; settings: mouse, in vivo, ip, mortality during 30 days
Procedure: Test compounds, dissolved or suspended in 0.5% aqueous CMC, were each intraperitoneally administered to ICR mice in a dose of 0.1 ml per 10 g body weight. LD50 (mg/kg) value of each test compound was calculated from the mortality of mice during 30 days by the Behrens-Karber method.

Leukemia L1210 = assay: Activity against Leukemia L1210, intraperitoneal, increase in life span of mice; assay type: in vivo, female mice (BDF1 family); settings: for ED (maximum ILS) / ED30: Mus musculus, L1210, ip, ip once a day for 5 successive days; for ED (maximum ILS): daily dosage giving maximum increase of life span, read-out: O.D. (optimum dosage); for ED30: daily dosage increasing average survival days by 30%, read-out: ILS30; for Survivors after 60 days / Max. ILS % / Therapeutic ratio TR: ip; for Survivors after 60 days: 6-membered group; for Max. ILS %: 60-day observation, versus control; for Therapeutic ratio TR: O.D./ILS30
Procedure, shortened: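 Female BDF1 mice (20 to 23 g; 6 per group) were implanted intraperitoneally with 1×10^5 L1210 cells, then dosed ip or orally once daily for 5 days starting 24 h later. Survival was followed over 60 days, and ILS% was derived from mean survival days versus untreated controls.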

Ehrlich acites carcinoma = assay: Growth-inhibiting effect against Ehrlich acites carcinoma; assay type: in vivo, male mice; settings: Mus musculus, Ehrlich, 120 h, 5 days; for response vs control in vivo at 25 mg/kg: 25 mg/kg/day ip; for response vs control in vivo at 100 mg/kg: 100 mg/kg/day ip; for response vs control in vivo at 50 mg/kg: 50 mg/kg/day ip; for response vs control in vivo at 200 mg/kg: 200 mg/kg/day ip
Procedure: Ehrlich acites carcinoma (1×10^7 cells) was implantated into the abdominal cavities of a 6-membered group of male mice. Test compounds (solutions or suspensions in 1% Nikohl HCO-60) were each intraperioneally administered once a day 5 successive days to the mice 24 hrs. after the implantation. Total packed cell volumes [TPCV, namely, total packed volumes of Acites carcinoma] were determined 7 days after the implantation to calculate growth ratio of tumor [T/C%; T: packed volume of Acites carcinoma in treated groups, C: packed volume of Acites carcinoma in an untreated group]. Acitivity is represented by - when T/C% is 100-66, by + when T/C% 65-41, by ++ when T/C% 40-11, and by +++ when T/C% 10-0.

Compound | LD50 at 720 h [1] [mg/kg] | ED (maximum ILS) (Leukemia L1210) [mg/kg] | ED30 (Leukemia L1210) [mg/kg] | Survivors after 60 days (Leukemia L1210) | Max. ILS % (Leukemia L1210) [%] | Therapeutic ratio TR (Leukemia L1210) | response vs control in vivo at 25 mg/kg (Ehrlich acites carcinoma; read-out: Activity) [%] | response vs control in vivo at 25 mg/kg (Ehrlich acites carcinoma; read-out: T/C %) [%] | response vs control in vivo at 100 mg/kg (Ehrlich acites carcinoma; read-out: Activity) [%] | response vs control in vivo at 100 mg/kg (Ehrlich acites carcinoma; read-out: T/C %) [%] | response vs control in vivo at 50 mg/kg (Ehrlich acites carcinoma; read-out: Activity) [%] | response vs control in vivo at 50 mg/kg (Ehrlich acites carcinoma; read-out: T/C %) [%] | response vs control in vivo at 200 mg/kg (Ehrlich acites carcinoma; read-out: Activity) [%] | response vs control in vivo at 200 mg/kg (Ehrlich acites carcinoma; read-out: T/C %) [%]
COC(C)CN(C[C@H]1O[C@H](OC2CCCCC2)[C@H](O)[C@@H](O)[C@@H]1O)C(=O)N(CCCl)N=O (stereo partly drawn) [Compound 41, 3-(2-methoxy-n-propyl)-3-(cyclohexyl α-D-glucopyranose-6-yl)-1-(2-chloroethyl)-1-nitrosourea] | 580 | 180 | 2.72 | 6/6 | > 700 | 66.2 | 0 to 10 | 0 | 0 to 10 | 0 |  |  |  | 
COc1cccc(CO[C@H]2O[C@H](CN(CC(C)C)C(=O)N(CCCl)N=O)[C@@H](O)[C@H](O)[C@H]2O)c1OC [Compound 52, 3-isobutyl-3-(2,3-dimethoxybenzyl α-D-glucopyranose-6-yl)-1-(2-chloroethyl)-1-nitrosourea] | 360 | 120 | 3.62 | 4/6 | > 420 | 33.1 | 0 to 10 | 0 | 0 to 10 | 0 |  |  |  | 
COCC(C)N(C(=O)N(CCCl)N=O)C1C(CO)OC(OCC(C)C)C(O)C1O [Compound 94, 3-(1-methyl-2-methoxyethyl)-3-(isobutyl α-D-glucopyranose-4-yl)-1-(2-chloroethyl)-1-nitrosourea] | 520 | 160 | 4.43 | 3/6 | > 360 | 36.1 | 0 to 10 | 0 | 0 to 10 | 0 |  |  |  | 
COCCCN(C[C@H]1O[C@H](OCC(C)C)[C@@H](O)[C@@H](O)[C@H]1O)C(=O)N(CCCl)N=O [Compound 146, 3-(3-methoxy-n-propyl)-3-(isobutyl α-D-talopyranose-6-yl)-1-(2-chloroethyl)-1-nitrosourea] | 595 | 180 | 3.19 | 5/6 | > 620 | 56.4 | 0 to 10 | 0 | 0 to 10 | 0 |  |  |  | 
CCCCO[C@H]1O[C@H](CN(C)C(=O)N(CCCl)N=O)[C@@H](O)[C@H](O)[C@H]1O [Compound 3, 3-methyl-3-(n-butylα-D-glucopyranose-6-yl)-1-(2-chloroethyl)-1-nitrosourea] | 260 | 90 | 2.7 | 6/6 | > 700 | 33.3 |  |  |  |  | 11 to 40 | 22.4 | 0 to 10 | 0
COCCCO[C@H]1O[C@H](CN(C(=O)N(CCCl)N=O)C(C)(C)C)[C@@H](O)[C@H](O)[C@H]1O [Compound 179, 3-tert-butyl-3-(3-methoxy-n-propyl α-D-glucopyranose-6-yl)-1-(2-chloroethyl)-1-nitrosourea] | 560 | 180 | 2.79 | 6/6 | > 700 | 64.4 | 0 to 10 | 0 | 0 to 10 | 0 |  |  |  | 

Reference: patent publication US4593090A, “Novel nitrosourea compounds, method for preparing same, and pharmaceutical composition containing same” (Gogo Kimura, priority 1981, dated 1986)
